# Measured values reported in patent US20130178466A1, “Treatment of Microbial Infections” (BIOCOPEA LIMITED, priority 2009, published 2013).
# Like-named read-outs stand apart in the source and are kept apart here.
# Tests used:
# TNF-α [1] = assay: TNF-α levels in PBMC under LPS stimulation (ELISA); format: cell-based, human; details: for effect on TNF under LPS stimulation (in words): LPS stimulated cells
# Description: (§1) The two mitogens that the inventors used to stimulate lymphocytes, and therefore assess immune function, were lipopolysaccharide (LPS) and Concanavalin A (Con A). LPS acts on B cells but not T cells, whereas Con A acts on T cells but not B cells. […] Peripheral Blood Mononuclear Cells (PMBC) were independently administered with each mitogen, LPS or Con A, and then treated with ibuproxam, benoxaprofen hydroxamate or pentoxifylline. […] Blood was collected in 6 ml vacutainers (green cap). Blood was processed within 2 h of collection. Materials used: Non-coagulated blood; FCS; RPMI-1640 media supplemented with L-Gln and P/S; PBS; sterile tips and pipettes; Sterile 15 ml Falcon; Sterile V-bottom 96-well plates with lids; Neubauer chamber; Trypan Blue solution; 70% IPA solution; Accuspin-Histopaque tubes (Sigma, A7054) Procedure: • 1. Dilute samples 1:1 in sterile PBS; • 2. Add 30 ml of diluted blood into an Accuspin-Histopaque tube (Sigma, A7054); • 3. Centrifuge at 800 rcf 15 min at room temperature (RT); • 4. After centrifugation, the red blood cells will remain at the bottom below the frit. The monocytes (PBMC) will be present on a layer above the frit, with the plasma on top; • 5. Collect the PBMC layer with a pipette into a fresh 15 ml Falcon tube and top up to 15 ml of PBS; • 6. Centrifuge at 250 rcf 10 min at RT; • 7. Discard the supernatant, flick the pellet and add another 10 ml of PBS; • 8. Centrifuge at 250 rcf 10 min at RT; • 9. Repeat steps 7 and 8; • 10. […] Count cells and make a 4×10^6 cell/ml suspension in complete medium. Add 100 μl of cell suspension per well in a V-bottom 96-well plate. Then add 50 μl of stimulant or vehicle in complete media, and 50 μl of drug or vehicle in complete media. Incubate the cells for 24 h at 37° C. 5% CO2; • 12. […] The values in the Table are expressed as the percentage value of the LPS only control. […] Standard deviation values (st error) are given underneath each value of expressed IFN-γ or TNF-α levels.
# IFN-γ [2] = assay: IFN-γ levels in PBMC under LPS stimulation (ELISA); format: cell-based, human; design: production of IFN after LPS stimulation (in words): dose or concentration left out as unconfirmed
# Description: as §1
# IFN-γ [3] = assay: IFN-γ levels in PBMC under Con A stimulation (ELISA); format: cell-based, human; details: for effect against ConA-stimulated IFN production (in words): Con A stimulated cells
# Description: (§2) The two mitogens that the inventors used to stimulate lymphocytes, and therefore assess immune function, were lipopolysaccharide (LPS) and Concanavalin A (Con A). LPS acts on B cells but not T cells, whereas Con A acts on T cells but not B cells.
# (§3) Blood was collected in 6 ml vacutainers (green cap). Blood was processed within 2 h of collection.
# (§4) Materials used: Non-coagulated blood; FCS; RPMI-1640 media supplemented with L-Gln and P/S; PBS; sterile tips and pipettes; Sterile 15 ml Falcon; Sterile V-bottom 96-well plates with lids; Neubauer chamber; Trypan Blue solution; 70% IPA solution; Accuspin-Histopaque tubes (Sigma, A7054)
# (§5) Procedure: • 1. Dilute samples 1:1 in sterile PBS; • 2. Add 30 ml of diluted blood into an Accuspin-Histopaque tube (Sigma, A7054); • 3. Centrifuge at 800 rcf 15 min at room temperature (RT); • 4. After centrifugation, the red blood cells will remain at the bottom below the frit. The monocytes (PBMC) will be present on a layer above the frit, with the plasma on top; • 5. Collect the PBMC layer with a pipette into a fresh 15 ml Falcon tube and top up to 15 ml of PBS; • 6. Centrifuge at 250 rcf 10 min at RT; • 7. Discard the supernatant, flick the pellet and add another 10 ml of PBS; • 8. Centrifuge at 250 rcf 10 min at RT; • 9. Repeat steps 7 and 8; • 10. Discard the supernatant and resuspend the pellet in 1 ml of complete medium (RPMI-1640 10% FCS); • 11. Count cells and make a 4×10^6 cell/ml suspension in complete medium. Add 100 μl of cell suspension per well in a V-bottom 96-well plate. Then add 50 μl of stimulant or vehicle in complete media, and 50 μl of drug or vehicle in complete media. Incubate the cells for 24 h at 37° C. 5% CO2; • 12. After incubation, take 60 μl of cell supernatant to measure IFNγ and TNFα by ELISA (OptEIA human IFNγ, cat No. 555142 and human TNF, Cat No. 555212) following manufacturer's instructions (BD Biosciences).
# Influenza A/PR/8/34 = assay: In vivo mouse challenge with lethal influenza (H1N1); design: species or system C57BL/6 female mice; details: H1N1-infected mice, single intra-peritoneal dose on day 3
# Description: Protocol: Fifty (50) C57BL/6 female mice (6-7 weeks old), were divided into five (5) experimental groups containing ten (10) animals each. On day 1, animals received an intranasal lethal dose (50 μl total, 25 μl nostril) of Influenza A/PR/8/34 under halothane induced anaesthesia. On Day 3, animals received one intra-peritoneal injection (100-150 μl) of the test compound (360 μg ibuproxam (BC1048), 54 μg oxametacin (BC1002), 180 μg benoxaprofen (BC 1005), 189 μg benoxaprofen hydroxamate (BC1006)).
# All animals were assessed daily for morbidity, weight loss and survival from Day 1 until at least Day 6. Morbidity variables (i.e. Body Condition, Posture, Activity, Piloerection, Respiration, Vocalisation, Ataxia and Oculo/Nasal Discharges) were recorded according to the following scale of severity: Normal (0), Mild (1), Laboured (2) and Severe/Cull-point (3).
# Using standard techniques as described above, mice were infected with a H1N1 virus which was allowed to become established in each of the subjects. […] The weight loss of both treated and untreated mice was then determined.
# TNF-α [4] = assay: TNF-α levels in PBMC under Con A stimulation (ELISA); format: cell-based, human; details: for effect against ConA-stimulated TNF production (in words): Con A stimulated cells
# Description: as §2, §3, §4, §5
# [5] = LPS, 1 μM, percentage of LPS only control (100%)
# [6] = LPS, 10 μM, percentage of LPS only control (100%)
# [7] = LPS, 100 μM, percentage of LPS only control (100%)
# [8] = no LPS, 1 μM, percentage of LPS only control
# [9] = no LPS, 10 μM, percentage of LPS only control
# [10] = no LPS, 100 μM, percentage of LPS only control
# [11] = ConA, 1 μM, compared to 100% untreated cells under Con A stimulation
# [12] = ConA, 10 μM, compared to 100% untreated cells under Con A stimulation
# [13] = ConA, 100 μM, compared to 100% untreated cells under Con A stimulation
SMILES,TNF-α % signal (TNF-α [1]; [5]),TNF-α % signal (TNF-α [1]; [6]),TNF-α % signal (TNF-α [1]; [7]),TNF-α % signal (TNF-α [1]; [8]),TNF-α % signal (TNF-α [1]; [9]),TNF-α % signal (TNF-α [1]; [10]),IFN-γ % signal (IFN-γ [2]; [5]),IFN-γ % signal (IFN-γ [2]; [6]),IFN-γ % signal (IFN-γ [2]; [7]),IFN-γ % signal (IFN-γ [2]; [8]),IFN-γ % signal (IFN-γ [2]; [9]),IFN-γ % signal (IFN-γ [2]; [10]),effect against ConA-stimulated IFN production (in words) (IFN-γ [3]),IFN-γ % signal (IFN-γ [3]; [11]),IFN-γ % signal (IFN-γ [3]; [12]),IFN-γ % signal (IFN-γ [3]; [13]),"IFN-γ % signal (IFN-γ [3]; no ConA, 1 μM)","IFN-γ % signal (IFN-γ [3]; no ConA, 10 μM)","IFN-γ % signal (IFN-γ [3]; no ConA, 100 μM)","survival rate versus control, untreated mice (Influenza A/PR/8/34)",further results
"CC(C(=O)NO)c1ccc2oc(-c3ccc(Cl)cc3)nc2c1 (stereo not shown) [BC1006, benoxaprofen hydroxamate]",106.25%,101.47%,57.77%,−2.29%,−2.27%,11.97%,35.29%,16.67%,21.21%,16.74%,13.46%,12.38%,clear effects,98.35%,33.81%,3.78%,3.76%,2.80%,1.82%,higher survival rate than the control,"maximal effect against TNF under LPS stimulation (TNF-α [1]; at the higher concentration): 41%; effect against ConA-stimulated TNF production (in words) (TNF-α [4]): clear effects; TNF-α % signal (TNF-α [4]; [11]): 83.37%; TNF-α % signal (TNF-α [4]; [12]): 38.65%; TNF-α % signal (TNF-α [4]; [13]): 51.50%; TNF-α % signal (TNF-α [4]; no ConA, 1 μM): 2.84%; TNF-α % signal (TNF-α [4]; no ConA, 10 μM): 1.62%; TNF-α % signal (TNF-α [4]; no ConA, 100 μM): 19.51%"
"CC(=O)CCCCn1c(=O)c2c(ncn2C)n(C)c1=O [BC1042, pentoxifylline]",113.04%,107.28%,114.60%,1.15%,−2.45%,−0.80%,102.11%,98.28%,40.73%,3.98%,1.48%,2.03%,little effect,108.10%,97.98%,92.61%,1.13%,0.42%,0.58%,higher survival rate than the control,"effect on TNF under LPS stimulation (in words) (TNF-α [1]): less of an effect; production of IFN after LPS stimulation (in words) (IFN-γ [2]): less pronounced than ibuproxam; effect against ConA-stimulated TNF production (in words) (TNF-α [4]): little effect; TNF-α % signal (TNF-α [4]; [11]): 101.46%; TNF-α % signal (TNF-α [4]; [12]): 102.31%; TNF-α % signal (TNF-α [4]; [13]): 103.71%; TNF-α % signal (TNF-α [4]; no ConA, 1 μM): 1.11%; TNF-α % signal (TNF-α [4]; no ConA, 10 μM): −2.37%; TNF-α % signal (TNF-α [4]; no ConA, 100 μM): −0.77%"
"CC(C(=O)O)c1ccc2oc(-c3ccc(Cl)cc3)nc2c1 (stereo not shown) [BC1005, benoxaprofen]",–,–,–,–,–,–,–,–,–,–,–,–,–,–,–,–,–,–,–,higher survival rate than the control,–
"COc1ccc2c(c1)c(CC(=O)NO)c(C)n2C(=O)c1ccc(Cl)cc1 [BC1002, oxametacin]",–,–,–,–,–,–,–,–,–,–,–,–,–,–,–,–,–,–,–,higher survival rate than the control,–
"CC(C)Cc1ccc(C(C)C(=O)NO)cc1 (stereo not shown) [BC1048, ibuproxam]",105.78%,105.67%,109.93%,3.14%,0.48%,−1.28%,89.21%,96.62%,−1.28%,−4.14%,−3.67%,−6.29%,modest effect,94.90%,97.25%,78.18%,−0.68%,−0.61%,−1.04%,higher survival rate than the control,"effect on TNF under LPS stimulation (in words) (TNF-α [1]): less of an effect; production of IFN after LPS stimulation (in words) (IFN-γ [2]; highest concentration): completely blocks; effect against ConA-stimulated TNF production (in words) (TNF-α [4]): modest effect; TNF-α % signal (TNF-α [4]; [11]): 109.64%; TNF-α % signal (TNF-α [4]; [12]): 106.74%; TNF-α % signal (TNF-α [4]; [13]): 79.25%; TNF-α % signal (TNF-α [4]; no ConA, 1 μM): 3.08%; TNF-α % signal (TNF-α [4]; no ConA, 10 μM): 0.48%; TNF-α % signal (TNF-α [4]; no ConA, 100 μM): −1.25%"
